Laboratory results published in patent publication US6794509B1, “Compounds for fluorescence labeling” (Fuji Photo Film Co., Ltd., priority 1999, dated 2004).

Tests used:
[1] = Comparison of relative fluorescence quantum yield (absorption and fluorescence spectra of dye solutions); type: physicochemical; details: for Absorption maximum (nm) / Fluorescence maximum (nm): ethanol solution of dye; for Fluorescence maximum (nm) / Relative fluorescence quantum yield: absorbance 0.1 at 620 nm; for Fluorescence maximum (nm): spectrum measured at 620 nm; for Relative fluorescence quantum yield: ethanol solution, area of fluorescence spectrum relative to Crystal Violet (Φf=0.54)
Method: Measurement and calculation of relative quantum yield were performed according to the method described in Journal of Chemical Society, Faraday Trans., 92, 4917-4925 (1996). The structures of the conventional cyanine dye used as comparative dyes are shown below.
(2) Fluorescence spectrum was measured at an […] wavelength of 620 nm.
(3) Area value of fluorescence spectrum was calculated.
(4) Relative value was calculated based on the area value of Crystal Violet of which absolute fluorescence quantum yield was known (Φf=0.54).

[2] = known value of the standard; cited from earlier work

| SMILES | Absorption maximum (nm) [1] [nm] | Fluorescence maximum (nm) [1] [nm] | Relative fluorescence quantum yield [1] | absolute fluorescence quantum yield (Φf) [2] |
| --- | --- | --- | --- | --- |
| CN(C)c1ccc(C(=C2C=CC(=[N+](C)C)C=C2)c2ccc(N(C)C)cc2)cc1 [Crystal Violet] | – | – | – | 0.54 |
| CC[N+]1=C(/C=C/C=C/C=C2/N(CCCCCC(=O)O)c3ccc(S(=O)(=O)[O-])cc3C2(C)C)C(C)(C)c2cc(S(=O)(=O)[O-])ccc21.[K+] [compound 2, reference compound] | 645 | 664 | 0.27 | – |

Now from value to compound, other results behind:

| Absorption maximum (nm) [1] [nm] | Fluorescence maximum (nm) [1] [nm] | Relative fluorescence quantum yield [1] | SMILES | absolute fluorescence quantum yield (Φf) [2] |
| --- | --- | --- | --- | --- |
| 651 | 672 | 0.63 | CC(CC[n+]1cc(C#Cc2ccc(N(CCCS(=O)(=O)[O-])S(C)(=O)=O)cc2)cc2c1N=C(/C=C/C=C1\N=C3C(=CC(C#Cc4ccc(N(CCCS(=O)(=O)[O-])S(C)(=O)=O)cc4)=CN3CCCCCC(=O)O)C1(C)C)C2(C)C)S(=O)(=O)[O-].[K+].[K+] (stereo not shown) [Compound I-11] | – |
| 650 | 671 | 0.62 | CC1(C)C2=CC(C#Cc3cccc(N(CCCS(=O)(=O)[O-])S(C)(=O)=O)c3)=CN(CCCCCC(=O)O)C2=N/C1=C\C=C\C1=Nc2c(cc(C#Cc3cccc(N(CCCS(=O)(=O)[O-])S(C)(=O)=O)c3)c[n+]2CCCS(=O)(=O)[O-])C1(C)C.[K+].[K+] [Compound I-12] | – |
| 651 | 672 | 0.63 | CC(CCN1C=C(C#Cc2ccc(N(CCCS(=O)(=O)[O-])S(C)(=O)=O)cc2)C=C2C1=N/C(=C\C=C\C1=Nc3c(cc(C#Cc4ccc(N(CCCCCC(=O)O)S(C)(=O)=O)cc4)c[n+]3CCC(C)S(=O)(=O)[O-])C1(C)C)C2(C)C)S(=O)(=O)[O-].[K+].[K+] (stereo not shown) [Compound I-13] | – |
